Source: patent publication US9243281B2, “Neuroprotective chemicals and methods for identifying and using same” (Board of Regents of The University of Texas System, priority 2013, dated 2016)

These molecules were tested on hippocampal neurogenesis (Dentate Gyrus) (assay: in vivo neurogenesis assay (BrdU+ cells in dentate gyrus)). Details: living mice; vehicle (DMSO) 7.3.
Parameters: species or system mice
How it was run: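 New hippocampal cells were tracked by daily BrdU injections and anti-BrdU staining of brain sections. Adult mice (two per pool of ten compounds) got week-long intracerebroventricular infusion by mini-pump, dosed for mid-nanomolar exposure.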
With `CN(C)C(=O)Cn1c2ccc(Br)cc2c2cc(Br)ccc21` [S215] the “Neurogenesis # BrdU+ Cells (X10E06)/mm3 Dentate Gyrus” value (“Neurogenesis # BrdU+ Cells” for short) was 8.3 (X10E06)/mm3.
In the case of `N#Cc1ccc2[nH]c3ccc(Br)cc3c2c1` [S216], the “Neurogenesis # BrdU+ Cells” value is reported as 13.0 (X10E06)/mm3.
`CC(=O)NCC(F)Cn1c2ccc(Br)cc2c2cc(Br)ccc21` (stereo not drawn) [S218] was tested, and the “Neurogenesis # BrdU+ Cells” value was 9.5 (X10E06)/mm3.
`O=C(CCCCCC1SCC2NC(=O)NC21)NCCCCCOc1cccc(NCC(O)Cn2c3ccc(Br)cc3c3cc(Br)ccc32)c1` (stereo not drawn) [S219] was tested, and the “Neurogenesis # BrdU+ Cells” value was 8.4 (X10E06)/mm3.
With `CC(C(N)=O)n1c2ccc(Br)cc2c2cc(Br)ccc21` (stereo not drawn) [S220] the “Neurogenesis # BrdU+ Cells” value was 10.5 (X10E06)/mm3.
In the case of `N#Cc1cc2c(cn1)[nH]c1ccc(Br)cc12` [S221], the “Neurogenesis # BrdU+ Cells” value is reported as 14.8 (X10E06)/mm3.
In the case of `NC(=O)c1ccc2[nH]c3ccc(Br)cc3c2c1` [S223], the “Neurogenesis # BrdU+ Cells” value is reported as 7.9 (X10E06)/mm3.
In the case of `N#Cc1ccc2c(c1)c1cc(Br)ccc1n2CC(=O)O` [S224], the “Neurogenesis # BrdU+ Cells” value is reported as 10.1 (X10E06)/mm3.
In the case of `O=C(O)c1ccc2[nH]c3ccc(Br)cc3c2c1` [S225], the “Neurogenesis # BrdU+ Cells” value is reported as 15.2 (X10E06)/mm3.
With `O=C(O)Cn1c2ccc(Br)cc2c2cc(C(=O)O)ncc21` [S227] the “Neurogenesis # BrdU+ Cells” value was 12.9 (X10E06)/mm3.
`Cc1ccc2[nH]c3ccc(Br)cc3c2c1` [S228] was tested, and the “Neurogenesis # BrdU+ Cells” value was 20.2 (X10E06)/mm3.
In the case of `O=C(Cn1c2ccc(Br)cc2c2cc(Br)ccc21)NO` [S231], the “Neurogenesis # BrdU+ Cells” value is reported as 13.1 (X10E06)/mm3.
In the case of `Brc1ccc2[nH]c3ccccc3c2c1` [S236], the “Neurogenesis # BrdU+ Cells” value is reported as 12.3 (X10E06)/mm3.
With `Cc1ccc2[nH]c3ccc(C)cc3c2c1` [S237] the “Neurogenesis # BrdU+ Cells” value was 11.8 (X10E06)/mm3.
In the case of `NC(=O)c1ccc2c(c1)c1cc(Br)ccc1n2CC(=O)O` [S238], the “Neurogenesis # BrdU+ Cells” value is reported as 9.4 (X10E06)/mm3.
For `O=C(O)Cn1c2ccc(Br)cc2c2cc(C(=O)O)ccc21` [S239], the “Neurogenesis # BrdU+ Cells” value was 11.4 (X10E06)/mm3.
`Cc1ccc2c(c1)c1cc(Br)ccc1n2CC(=O)O` [S240] was tested, and the “Neurogenesis # BrdU+ Cells” value was 14.3 (X10E06)/mm3.
`COc1cccc(N(CC(F)Cn2c3ccc(Br)cc3c3cc(Br)ccc32)S(=O)(=O)C(F)(F)F)c1` (stereo not drawn) [S241] was tested, and the “Neurogenesis # BrdU+ Cells” value was 15.5 (X10E06)/mm3.
`O=C(O)CCc1c[nH]c2ccccc12` [S242] was tested, and the “Neurogenesis # BrdU+ Cells” value was 10.8 (X10E06)/mm3.
For `COc1cccc(N(CC(O)Cn2c3ccc(Br)cc3c3cc(Br)ccc32)S(=O)(=O)C(F)(F)F)c1` (stereo not drawn) [S244], the “Neurogenesis # BrdU+ Cells” value was 11.6 (X10E06)/mm3.
With `CN(C)c1nc(O)c2[nH]c3ccccc3c2n1` [S245] the “Neurogenesis # BrdU+ Cells” value was 16.2 (X10E06)/mm3.
In the case of `CCOC(=O)c1ncc2c(n1)c1ccccc1n2S(=O)(=O)c1ccc(C)cc1` [S246], the “Neurogenesis # BrdU+ Cells” value is reported as 14.5 (X10E06)/mm3.
In the case of `CCOC(=O)C1=NCc2c(c3ccccc3n2S(=O)(=O)c2ccc(C)cc2)N1` [S247], the “Neurogenesis # BrdU+ Cells” value is reported as 15.6 (X10E06)/mm3.
`N[C@@H](Cc1c[nH]c2ccccc12)C(=O)O` [S248] was tested, and the “Neurogenesis # BrdU+ Cells” value was 10.1 (X10E06)/mm3.

These molecules were tested against T1, p70 (NAMPT) (Homo sapiens, UniProt P43490) (assay: binding competition for photo-crosslinking of P7C3-S326 to p70 in H2122 cells). Details: 0.3 μM P7C3-S326 plus 5 μM competitor, p70 band intensity, P7C3-S326 alone compared with plus competitor, vehicle 1.0.
T1 construct: endogenous in cells; host or cells: H2122 lung cancer cells
T1 sequence (P43490 whole entry): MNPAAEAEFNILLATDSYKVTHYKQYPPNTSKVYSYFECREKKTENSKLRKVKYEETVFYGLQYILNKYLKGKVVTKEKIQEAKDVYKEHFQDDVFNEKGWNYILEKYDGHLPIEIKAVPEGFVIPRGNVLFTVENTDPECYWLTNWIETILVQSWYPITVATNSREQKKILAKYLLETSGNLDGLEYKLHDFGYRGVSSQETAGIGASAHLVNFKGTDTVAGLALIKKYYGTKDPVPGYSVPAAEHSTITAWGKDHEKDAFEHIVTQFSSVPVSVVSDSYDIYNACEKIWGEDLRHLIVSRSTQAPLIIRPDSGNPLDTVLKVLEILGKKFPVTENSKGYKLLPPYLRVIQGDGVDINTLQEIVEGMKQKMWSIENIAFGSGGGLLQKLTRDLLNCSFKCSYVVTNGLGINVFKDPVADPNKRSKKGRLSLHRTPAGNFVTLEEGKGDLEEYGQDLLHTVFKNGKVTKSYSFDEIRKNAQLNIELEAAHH
How it was run: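 Competition for photo-crosslinking: P7C3 analogs (5 uM) were added alongside the 0.3 μM P7C3-S326 probe to H2122 cells for 2 hours before 15 minutes of 306 nm UV irradiation. In-gel fluorescence of the p70 band after click labeling was normalized to DMSO.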
In the case of `CN(C)C(=O)Cn1c2ccc(Br)cc2c2cc(Br)ccc21` [S215], the Binding competition is reported as 3.6.
`N#Cc1ccc2[nH]c3ccc(Br)cc3c2c1` [S216] showed a Binding competition of 4.4.
Molecule `CC(=O)NCC(F)Cn1c2ccc(Br)cc2c2cc(Br)ccc21` (stereo not drawn) [S218] has a Binding competition of 3.2.
With `O=C(CCCCCC1SCC2NC(=O)NC21)NCCCCCOc1cccc(NCC(O)Cn2c3ccc(Br)cc3c3cc(Br)ccc32)c1` (stereo not drawn) [S219] the Binding competition was 3.1.
`CC(C(N)=O)n1c2ccc(Br)cc2c2cc(Br)ccc21` (stereo not drawn) [S220] gave a Binding competition of 2.9.
`N#Cc1cc2c(cn1)[nH]c1ccc(Br)cc12` [S221] showed a Binding competition of 2.9.
In the case of `NC(=O)c1ccc2[nH]c3ccc(Br)cc3c2c1` [S223], the Binding competition is reported as 3.0.
With `N#Cc1ccc2c(c1)c1cc(Br)ccc1n2CC(=O)O` [S224] the Binding competition was 1.3.
Molecule `O=C(O)c1ccc2[nH]c3ccc(Br)cc3c2c1` [S225] has a Binding competition of 2.2.
For `O=C(O)Cn1c2ccc(Br)cc2c2cc(C(=O)O)ncc21` [S227], the Binding competition was 0.9.
`Cc1ccc2[nH]c3ccc(Br)cc3c2c1` [S228] was tested, and the Binding competition was 2.0.
Molecule `O=C(Cn1c2ccc(Br)cc2c2cc(Br)ccc21)NO` [S231] has a Binding competition of 1.7.
`Brc1ccc2[nH]c3ccccc3c2c1` [S236] gave a Binding competition of 1.7.
`Cc1ccc2[nH]c3ccc(C)cc3c2c1` [S237] showed a Binding competition of 1.5.
`NC(=O)c1ccc2c(c1)c1cc(Br)ccc1n2CC(=O)O` [S238] was tested, and the Binding competition was 0.9.
`O=C(O)Cn1c2ccc(Br)cc2c2cc(C(=O)O)ccc21` [S239] showed a Binding competition of 0.9.
For `Cc1ccc2c(c1)c1cc(Br)ccc1n2CC(=O)O` [S240], the Binding competition was 1.7.
`COc1cccc(N(CC(F)Cn2c3ccc(Br)cc3c3cc(Br)ccc32)S(=O)(=O)C(F)(F)F)c1` (stereo not drawn) [S241] showed a Binding competition of 1.3.
`O=C(O)CCc1c[nH]c2ccccc12` [S242] showed a Binding competition of 1.2.
In the case of `COc1cccc(N(CC(O)Cn2c3ccc(Br)cc3c3cc(Br)ccc32)S(=O)(=O)C(F)(F)F)c1` (stereo not drawn) [S244], the Binding competition is reported as 1.1.
Work on `CN(C)c1nc(O)c2[nH]c3ccccc3c2n1` [S245] yielded a Binding competition of 1.0.
`CCOC(=O)c1ncc2c(n1)c1ccccc1n2S(=O)(=O)c1ccc(C)cc1` [S246] gave a Binding competition of 1.3.
`CCOC(=O)C1=NCc2c(c3ccccc3n2S(=O)(=O)c2ccc(C)cc2)N1` [S247] gave a Binding competition of 1.6.
`N[C@@H](Cc1c[nH]c2ccccc12)C(=O)O` [S248] was tested, and the Binding competition was 1.3.
